Target: human glutamine synthetase (Homo sapiens, UniProt P15104)
Test: coupled pyruvate kinase/lactate dehydrogenase NADH assay
Assay type: biochemical

human glutamine synthetase, sequence (P15104 2-373): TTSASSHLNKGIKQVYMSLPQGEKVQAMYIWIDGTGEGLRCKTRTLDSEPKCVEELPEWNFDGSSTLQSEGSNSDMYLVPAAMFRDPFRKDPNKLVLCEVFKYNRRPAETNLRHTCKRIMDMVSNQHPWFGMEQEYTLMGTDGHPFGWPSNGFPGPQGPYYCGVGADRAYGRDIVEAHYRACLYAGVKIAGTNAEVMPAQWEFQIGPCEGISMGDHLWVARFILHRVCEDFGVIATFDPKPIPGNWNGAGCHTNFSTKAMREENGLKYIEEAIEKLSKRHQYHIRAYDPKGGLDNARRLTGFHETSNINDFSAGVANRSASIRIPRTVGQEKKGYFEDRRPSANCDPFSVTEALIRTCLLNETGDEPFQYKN

CS(=N)(=O)CCC(N)C(=O)O (mixture of isomers) [MSO, L-methionine-S,R-sulfoximine]
Ki: 1.19 mM
